Test results published in publication PMC5602130, “Food and Sex-Related Impacts on the Pharmacokinetics of a Single-Dose of Ginsenoside Compound K in Healthy Subjects” (Frontiers in Pharmacology, 2017).
Where two headings read alike, the source gives them in different places.

How the values were obtained:
[1] = design: method as in unpublished; details: ref unpublished, cited from earlier work
[2] = Food-effect two-period crossover trial: plasma pharmacokinetics after a single 200 mg oral dose of Ginsenoside CK Tablets; assay type: in vivo, human; details: for Tmax: median (range)
Method: The food-effect trial was an open-label, randomized, two-period, two-treatment crossover trial, carried out from 15 January to 31 March 2015. Subjects (n = 24) were admitted to the clinical facility (Center of Clinical Pharmacology, the Third Xiangya Hospital, Central South University, Changsha, China) and randomized to receive a single 200 mg oral dose of Ginsenoside CK Tablets (4 × 50 mg tablets) either after a 10 h-fasting period or within 30 min after beginning the consumption of a recommended high-fat, high calorie breakfast (150 calories of protein, 250 calories of carbohydrates, 500 to 600 calories of fat; total calories approximately 800–1,000). Tablets were administered with 250 mL of water, to each subject, in each treatment period. Drinking was prohibited for 2 h before and after medication. Apart from this, the amount and time of drinking were not strictly controlled. Subjects had unified, standard meals 4 and 10 h after drug administration. The alternate treatment was conducted after a 14-day washout period.
Serial blood samples (5 mL) for PK assessment were collected from an indwelling catheter or by direct venipuncture prior to the administration (t = 0) and 0.25, 0.5, 1, 1.5, 2, 2.5, 3, 3.5, 4, 5, 6, 8, 12, 24, 36, 48, 72, and 96 h after the administration of ginsenoside CK. We inferred that these sampling times were sufficient for this trial, based on international guidelines (FDA, [2003]; CFDA, [2005]) and our previous results, since the sampling time is longer than at least three terminal half-lives of the drug. Additionally, the mean plasma concentrations of both CK and 20(S)-PPD at 96 h were considerably <1/20 of their Cmax even when the single oral dose at 800 mg (unpublished). Plasma was separated in blood collection tubes by centrifugation (3,000 rpm, 10 min) at 4°C within 1 h after sampling, transferred to labeled storage tubes and stored at −70°C pending workup and analysis.
Descriptive statistics of PK parameters were calculated using established non-compartmental methods, utilizing the WinNonLin version 6.1 software (Pharsight Corporation, USA). The PK parameters determined for each participant included apparent terminal half-life (t1/2), maximum plasma concentration (Cmax), time to Cmax (tmax), area under the plasma concentration-time curve from the time of administration up to the last time point with a measurable concentration post-dose (AUClast), AUC extrapolated to infinity (AUCinf), apparent volume of distribution (V/F), apparent plasma clearance (CL/F) after extravascular administration, mean residence time (MRTlast and MRTinf), and the cumulative excretion rate from urine. The t1/2 was estimated as (ln2)/K, where K represented the slope of the terminal phase of plasma concentration-time profile and was assessed with a weighting factor of 1, using least squares (log-linear regression of at least three data points). The Cmax and tmax were obtained from experimental observations. The values of AUC were calculated using conventional trapezoidal and log-trapezoidal methods and the extrapolated area (Rowland and Tozer, [1995]). CL/F and V/F were calculated as dose/AUCinf and (CL/F)/K, respectively. MRT was calculated as MRT = AUMC/AUC, where AUMC is the area under the first moment curve. The cumulative excretion rate was calculated as the amount of unchanged drug over a time interval in the urine divided by dose, and was expressed as a percentage.
All samples were detected using a LC-MS/MS (API 4000, ABI Company, USA) method, validated at the Institute of Clinical Pharmacology, Central South University (Changsha, China). Concentrations of CK and 20(S)-PPD were measured using a triple quadrupole tandem mass spectrometer in multiple reaction monitoring (MRM) mode, via a positive electrospray ionization source at m/z 621.4→ 160.8 for the CK and m/z 461.5→425.3 for 20(S)-PPD, with a dwell time of 200 ms. […]

[3] = both sexes, human, plasma, po, 200 mg, single oral 200 mg CK, FO, all subjects
[4] = female, human, plasma, po, 200 mg, single oral 200 mg CK, FO
[5] = female, human, plasma, po, 200 mg, single oral 200 mg CK, HF
[6] = geometric mean ratio FO vs. HF, n = 24
[7] = human, plasma, po, 200 mg, single oral 200 mg CK, FO, all subjects
[8] = human, plasma, po, 200 mg, single oral 200 mg CK, HF, all subjects
[9] = male, human, plasma, po, 200 mg, single oral 200 mg CK, FO
[10] = male, human, plasma, po, 200 mg, single oral 200 mg CK, HF
[11] = plasma, single oral 200 mg CK, FO, female
[12] = plasma, single oral 200 mg CK, FO, male
[13] = plasma, single oral 200 mg CK, HF, male
[14] = single oral 200 mg CK, FO, all subjects
[15] = single oral 200 mg CK, FO, female
[16] = single oral 200 mg CK, FO, male
[17] = single oral 200 mg CK, HF, all subjects
[18] = single oral 200 mg CK, HF, female
[19] = single oral 200 mg CK, HF, male

In the case of `CC(C)=CCCC(C)(OC1OC(CO)C(O)C(O)C1O)C1CCC2(C)C1C(O)CC1C3(C)CCC(O)C(C)(C)C3CCC12C` [CK, 20-O-beta-D-glucopyranosyl-20(S)-protopanaxadiol], the “Effects on vital signs, laboratory tests or 12-lead ECG” value ([1]; dose range 100–400 mg) is given as “no significant effects”, the “Dose range over which exposure increased linearly” value ([1]; previous clinical trial) is given as 100 to 400 mg and the “Mean plasma concentration at 96 h as fraction of Cmax” value ([1]; single oral dose at 800 mg) is given as < 1/20. The “Increase of Cmax, AUClast and AUCinf after HF meal compared to the FO condition” value ([2]; 24 subjects) was “about 2 fold”, the “lgAUClast GMR (90%CI)” value ([2]; FO vs. HF (Female), n = 12) was 0.38 (0.28–0.53) and the “lgCmax GMR (90%CI)” value ([2]; FO vs. HF (Female), n = 12) was 0.45 (0.33–0.62). For the same compound, the “lgAUClast GMR (90%CI)” value ([2]; FO vs. HF (Male), n = 12) was 0.49 (0.42–0.57), the “lgCmax GMR (90%CI)” value ([2]; FO vs. HF (Male), n = 12) was 0.55 (0.46–0.65) and the “lgAUClast GMR (90%CI)” value ([2]; M vs. F (FO), n = 12) was 0.74 (0.54–1.02). For the same compound, the “lgCmax GMR (90%CI)” value ([2]; M vs. F (FO), n = 12) was 0.77 (0.57–1.04), the “lgAUClast GMR (90%CI)” value ([2]; M vs. F (HF), n = 12) was 0.59 (0.46–0.75) and the “lgCmax GMR (90%CI)” value ([2]; M vs. F (HF), n = 12) was 0.64 (0.46–0.88). For the same compound, the “Subjects having measurable CK concentrations at 0.25 h after administration” value ([2]; after a meal, 20 of 24 subjects) was 83%, the half-life ([2]; both sexes, human, plasma, oral, 200 mg, FO and HF, male and female groups, read-out: mean t1/2, range over all treatments) was 24 to 28.4 h and the AUC(0-inf) [2, 3] was 5880 ng·h/mL. It also gave an AUC(0-t) [2, 3] of 5750 ng·h/mL, an AUC(0-t) ([2]; both sexes, human, plasma, po, 200 mg, single oral 200 mg CK, HF, all subjects) of 12600 ng·h/mL and a Tmax [2, 4] of 3.8 h. It also gave a Cmax ([2]; female, human, plasma, po, 200 mg, plasma, single oral 200 mg CK, FO, female, read-out: Cmax) of 921 ± 505 ng/mL, a half-life ([2]; female, human, plasma, po, 200 mg, plasma, single oral 200 mg CK, FO, female, read-out: t1/2 (converted)) of 26.9 ± 5.4 h and a Cmax ([2]; female, human, plasma, po, 200 mg, plasma, single oral 200 mg CK, HF, female, read-out: Cmax) of 1840 ng/mL. It also gave a half-life ([2]; female, human, plasma, po, 200 mg, plasma, single oral 200 mg CK, HF, female, read-out: t1/2 (converted)) of 25.6 ± 3.5 h, an MRT inf [2, 4] of 14.5 ± 2.1 h and an MRT last [2, 4] of 11.6 ± 1 h. For the same compound, the MRT inf [2, 5] was 14.6 ± 1.5 h, the MRT last [2, 5] was 12.2 ± 1 h and the AUC(0-inf) [2, 4] was 6900 ng·h/mL. For the same compound, the AUC(0-t) [2, 4] was 6750 ng·h/mL, the AUC(0-inf) [2, 5] was 15900 ng·h/mL and the AUC(0-t) [2, 5] was 15600 ng·h/mL. The “lgAUClast GMR (90%CI)” value [2, 6] was 0.43 (0.36–0.51), the “lgCmax GMR (90%CI)” value [2, 6] was 0.50 (0.42–0.59) and the Tmax [2, 7] was 3.6 h. The half-life ([2]; human, plasma, po, 200 mg, plasma, single oral 200 mg CK, FO (fasting overnight), all subjects, read-out: t1/2 (converted)) was 27.7 ± 7.9 h, the Cmax ([2]; human, plasma, po, 200 mg, plasma, single oral 200 mg CK, FO, all subjects, read-out: Cmax) was 797 ± 406 ng/mL and the half-life ([2]; human, plasma, po, 200 mg, plasma, single oral 200 mg CK, HF (high-fat meal), all subjects, read-out: t1/2 (converted)) was 24.8 ± 3 h. The Cmax ([2]; human, plasma, po, 200 mg, plasma, single oral 200 mg CK, HF, all subjects, read-out: Cmax) was 1570 ng/mL, the MRT inf [2, 7] was 15.1 ± 4.3 h and the MRT last [2, 7] was 11.7 ± 1.2 h. It also gave an MRT inf [2, 8] of 14.6 ± 1.7 h, an MRT last [2, 8] of 12.3 ± 1.2 h and a Tmax [2, 9] of 3.4 h. The Cmax ([2]; male, human, plasma, po, 200 mg, plasma, single oral 200 mg CK, FO, male, read-out: Cmax) was 672 ± 236 ng/mL, the half-life ([2]; male, human, plasma, po, 200 mg, plasma, single oral 200 mg CK, FO, male, read-out: t1/2 (converted)) was 28.4 ± 10 h and the Cmax ([2]; male, human, plasma, po, 200 mg, plasma, single oral 200 mg CK, HF, male, read-out: Cmax) was 1300 ng/mL. It also gave a half-life ([2]; male, human, plasma, po, 200 mg, plasma, single oral 200 mg CK, HF, male, read-out: t1/2 (converted)) of 24 ± 2.4 h, an MRT inf [2, 9] of 15.7 ± 5.7 h and an MRT last [2, 9] of 11.9 ± 1.3 h. It also gave an MRT inf [2, 10] of 14.5 ± 1.9 h, an MRT last [2, 10] of 12.4 ± 1.4 h and an AUC(0-inf) [2, 9] of 4860 ng·h/mL. The AUC(0-t) [2, 9] was 4750 ng·h/mL, the AUC(0-inf) [2, 10] was 9810 ng·h/mL and the AUC(0-t) [2, 10] was 9630 ng·h/mL. The AUClast [2, 11] was 6,747.5 ± 3,408.7 h·ng·ml^−1, the Cmax [2, 11] was 921.4 ± 505.1 ng/mL and the AUCinf [2, 12] was 4,857.1 ± 1,723.2 h·ng·ml^−1. For the same compound, the AUClast [2, 12] was 4,749.9 ± 1,718.1 h·ng·ml^−1, the Cmax [2, 12] was 672.2 ± 235.8 ng/mL and the Cmax ([2]; plasma, single oral 200 mg CK, HF, female) was 1,838.6 ± 404.4 ng·ml^−1. For the same compound, the AUClast [2, 13] was 9,633.1 ± 3,313.5 h·ng·ml^−1, the Cmax [2, 13] was 1,302.0 ± 632.9 ng·ml^−1 and the CL/F [2, 14] was 43.4 ± 24.2 L/h. The V/F [2, 14] was 1,875 ± 1,899 L, the CL/F [2, 15] was 38.0 ± 21.8 L/h and the V/F [2, 15] was 1,427 ± 699 L. The CL/F [2, 16] was 48.8 ± 26.3 L/h, the V/F [2, 16] was 2,323 ± 2,572 L and the CL/F [2, 17] was 18.2 ± 9.8 L/h. It also gave a V/F [2, 17] of 652 ± 381 L, a CL/F [2, 18] of 12.8 ± 1.8 L/h and a V/F [2, 18] of 477 ± 109 L. The CL/F [2, 19] was 23.6 ± 11.6 L/h and the V/F [2, 19] was 828 ± 475 L.
